Test results taken from US8541458B2, “Oxabicycloheptanes and oxabicycloheptenes, their preparation and use” (Lixte Biotechnology, Inc., priority 2008, dated 2013).
Structures can show the parent of a compound that is named as a salt.

Tests used:
[1] = test system: glioblastoma multiforme cells of line U373; experiment: Inhibition of growth of glioblastoma multiforme cells, 7 days exposure; type: cell-based
Method: Inhibition of growth of glioblastoma multiforme cells of line U373 by exposure for 7 days to increasing concentrations of compound 109 compared to 10 uM compound 100.
Inhibition of growth of glioblastoma multiforme cells of line U373 by exposure for 7 days to increasing concentrations of compound 110 compared to 10 uM compound 100.
Inhibition of growth of glioblastoma multiforme cells of line […] by exposure for 7 days to increasing concentrations of compound 113 compared to 10 uM compound 100.
Inhibition of Growth of Glioblastoma Multiforme Cells of Line […] by Exposure for 7 Days to Increasing Concentrations of Compound 109, 110, 112, and 113

Akt = Akt phosphorylation after intraperitoneal administration to mice; type: in vivo; conditions: given intraperitoneally to normal mice
From the text: The compounds described herein increase the phosphorylation of several regulatory proteins including Akt. At low doses that are non-toxic to mice, these compounds slightly stimulate cell proliferation and increase phosphorylation of Akt in human cancer cells lines tested, including SH-SY5Y.
The mechanism by which the compounds described herein exert their neuroprotective effect may be by increasing the intra-neuronal cell activity of Akt-1 and enhancing the acetylation of neuronal histones. Each of these compounds when given by intraperitoneal injection increase Akt phosphorylation in mouse neurons. This increase in Aky phosphorylation is associated with an increase in the phosphorylation of GSK-3β. Because increased phosphorylation of GSK-3β is known to decrease its activity, chronic suppression of GSK 3β by the compounds described herein may reduce tau phosphorylation. Reduction in tau phosphorylation reduces the formation of paired helical filaments, an intervention that should lessen the progression of tauopathies, including Alzheimer's disease, Parkinson's disease, amyotrophic lateral sclerosis, and other rarer neurodegenerative diseases characterized by abnormal depositions of tau molecules.

[2] = test system: Human Medulloblastoma DAOY cells; experiment: DAOY xenografts implanted subcutaneously in SCID mice, tumor volume; type: in vivo; conditions: subcutaneous DAOY xenografts, 0.12 mg and 0.18 mg doses, two weeks of treatment, vs vehicle (PBS)
Method: (§1) Medulloblastoma DAOY cells were implanted subcutaneously in the flanks of SCID mice. After 7 days when the implanted tumor cells reached a mass with the average diameter of 6 mm, 6 animals received 0.12 mg of Compound 110, 6 animals received 0.18 mg of Compound 110, and 6 animals, received vehicle (PBS) only. After two weeks of treatment all animals were sacrificed, the subcutaneous tumor masses resected, and their volumes calculated.
as §1, with “Human Medulloblastoma” for “Medulloblastoma”, “animals” for “animals,”, “treatment,” for “treatment”

[3] = increasing concentrations, 7 days exposure

Structure (SMILES) | melting point | inhibition of cell growth [1, 3] | Akt phosphorylation (Akt) | entry into the brain (Entry into the brain) | further results
CN1CCN(C(=O)C2C3CCC(O3)C2C(=O)Oc2ccc(CC(N)C(=O)O)cc2)CC1 (centres unmarked) (as salt: hydrochloride) [Compound 110, 3-(4-Methylpiperazine-1-carbonyl)-7-oxa-bicyclo[2,2,1]heptane-2-carboxylic acid 4-(2-amino-2-carboxyethyl)-phenyl ester hydrochloride salt] | 110 °C (dec.) | – | – | – | –
O=C(OCc1ccccc1)C1C2CCC(O2)C1C(=O)N1CCN(CCO)CC1 (centres unmarked) [Compound 109, 3-[4-(2-Hydroxyethyl)-piperazine-1-carbonyl]-7-oxa-bicyclo[2.2.1]heptane-2-carboxylic acid benzyl ester] | – | – | – | – | inhibition of cell growth ([1]; highest concentrations, after 3 day): slight inhibition of cell growth; stimulation of cell growth ([1]; lower concentrations, increasing over 7 days): slight stimulatory activity
CN1CCN(C(=O)C2C3CCC(O3)C2C(=O)Oc2ccc(CC(N)C(=O)O)cc2)CC1 (centres unmarked) [Compound 110, 3-(4-Methylpiperazine-1-carbonyl)-7-oxa-bicyclo[2,2,1]heptane-2-carboxylic acid 4-(2-amino-2-carboxyethyl)-phenyl ester hydrochloride salt] | – | inhibited cell growth in a dose dependent manner | increased Akt phosphorylation | properties that enhance their entry into the brain | inhibition of tumor growth (tumor volume) [2]: significant inhibition of tumor growth
CN1CCN(C(=O)C2C3CCC(O3)C2C(=O)Oc2ccc(CC(NC(=O)OC(C)(C)C)C(=O)O)cc2)CC1 (centres unmarked) [Compound 112, 3-(4-Methylpiperazine-1-carbonyl)-7-oxa-bicyclo[2,2,1]heptane-2-carboxylic acid 4-(2-tert-butoxycarbonylamino-2-carboxyethyl)-phenyl ester] | 165 °C (dec.) | inhibited cell growth in a dose dependent manner | – | properties that enhance their entry into the brain | –
CN1CCN(C(=O)C2C3CCC(O3)C2C(=O)OCC(Cl)(Cl)Cl)CC1 (centres unmarked) [Compound 113, 3-(4-Methyl-piperazine-1-carbonyl)-7-oxa-bicylco[2,2,1]heptane-2-carboxylic acid 2,2,2-trichloroethyl ester] | – | inhibited cell growth in a dose dependent manner | increased Akt phosphorylation | properties that enhance their entry into the brain | –
O=C(O)C1C2CCC(O2)C1C(=O)NCCN1C(=O)NC(c2ccccc2)(c2ccccc2)C1=O (centres unmarked) [Compound 114, 3-[2-(2,5-Dioxo-4,4-diphenyl-imidazolidin-1-yl)-ethylcarbamoyl]-7-oxa-bicyclo(2.2.1]heptane-2-carboxylic acid] | – | – | – | properties that enhance their entry into the brain | –
